Tests used:
fpn-1.2KO C. elegans [1] = test: GFP-tagged ferritin (ftn-1) fluorescence in ASI neurons of fpn-1.2KO worms; assay type: in vivo
Source text: (§1) The ability of hinokitiol and FeM-1269 to confer neuroprotection. Replicated NBIA, was created fpn-1.2KO C. elegans strain using CRISPR/Cas9-mediated knockout and then mated with Pdat::GFP strain to create a fpn-1.2KO strain with GFP-tagged dopaminergic neurons (fpn-1.2KO; Pdat::GFP). The genotype of strains was verified by genotyping PCR and Sanger sequencing. All strains used have been backcrossed to N2 at least three times. To treat C. elegans with small molecules, day 4 adult worms were transferred to NGM containing small molecules. Worms were transferred to newly seeded small molecules containing NGM until the day seven in which they are imaged using a confocal microscope with GFP fluorescence. The scoring is conducted in a blinded study in which the integrity of the dopaminergic neuron is observed to reflect neurodegeneration. […] Hinokitiol derivative FeM-1269 may have potential to increase the therapeutic index of hinokitiol. […] On the other hand, hinokitiol and FeM-1269 treatment to fpn-1.2KO worms caused robust reductions of fluorescence levels (FIG. 3G-H) from the concentration of 0.1 μM and 0.05 μM, respectively, which can be associated with the release of intracellular iron from ASI neurons. […]

fpn-1.2KO C. elegans [2] = test: Dopaminergic neurodegeneration scoring in fpn-1.2KO; Pdat::GFP worms; assay type: in vivo
Source text: as §1

FPN1.2KO C. elegans = test: ROS (DCF) in lysate of treated FPN1.2KO C. elegans; assay type: in vivo; settings: treated day four, collected day 5, lysate with DCF
[3] = EPR of Fe(II) oxidation on compound binding
flatiron mice = test: ICP-MS brain iron level in flatiron mice; assay type: in vivo
Procedure: In parallel to C. elegans, flatiron mice were used, a leading animal model of FPN1 deficiency due to H32R mutation of FPN1 (34, 35). These mice were subjected to ICP-MS and behavioral studies in which blood samples and tissues were collected and submitted for analysis. In addition, behavior was assessed by an elevated plus maze, exploratory mazes, and daily monitoring. […] To determine dose-dependency these mice were subjected to a singular IP injection to assess acute administration and then treated chronically via IP injections of 10 mg/kg for a week.

[4] = LC-MS in vitro dopamine oxidation assay; assay type: physicochemical; settings: 100 μM dopamine
Procedure: To monitor dopamine oxidation, an in vitro assay using an LC-MS was developed by monitoring dopamine concentrations via mass spectrometry hits. Samples of 100 μM dopamine were prepared and then treated with either control, hino, or FeM-1269. […] In addition, this was monitored via LC-MS to see the concentration of DAC generated in this same process.

[5] = Cyclic voltammetry of hinokitiol-iron complexes; assay type: physicochemical; settings: 100 mV/s, 0.1 M Tris, 1:1 MeOH:H2O, pH=7.2, 100 μM Fe(NO3)3
Procedure: These were obtained with a 100 mV/s scan rate with a Hg electrode, Ag/AgCl reference, and graphite auxiliary using a 0.1 M Tris buffer in 1:1 MeOH:H2O at pH=7.2 and 100 μM Fe(NO3)3.

human apo-Tf = human apo-Tf (Homo sapiens, UniProt P02787); test: Iron handoff to transferrin; assay type: biochemical
Procedure: For kinetic experiments, 4 μM human apo-Tf was incubated with 64 μM Fe(Hino)3 complex. The reactions were stopped at several time points using sample buffer. Samples were run using the same conditions as above. After running, the gels were stained with RAPIDStain (G-biosciences 786-31), according to the manufacturer's instructions. The formation of different Fe-Tf species was quantified by measuring the band densities using ImageLab 4.1 (Bio-Rad) and expressed as a function of molar fractions.

human apo-Tf, sequence (P02787 20-698): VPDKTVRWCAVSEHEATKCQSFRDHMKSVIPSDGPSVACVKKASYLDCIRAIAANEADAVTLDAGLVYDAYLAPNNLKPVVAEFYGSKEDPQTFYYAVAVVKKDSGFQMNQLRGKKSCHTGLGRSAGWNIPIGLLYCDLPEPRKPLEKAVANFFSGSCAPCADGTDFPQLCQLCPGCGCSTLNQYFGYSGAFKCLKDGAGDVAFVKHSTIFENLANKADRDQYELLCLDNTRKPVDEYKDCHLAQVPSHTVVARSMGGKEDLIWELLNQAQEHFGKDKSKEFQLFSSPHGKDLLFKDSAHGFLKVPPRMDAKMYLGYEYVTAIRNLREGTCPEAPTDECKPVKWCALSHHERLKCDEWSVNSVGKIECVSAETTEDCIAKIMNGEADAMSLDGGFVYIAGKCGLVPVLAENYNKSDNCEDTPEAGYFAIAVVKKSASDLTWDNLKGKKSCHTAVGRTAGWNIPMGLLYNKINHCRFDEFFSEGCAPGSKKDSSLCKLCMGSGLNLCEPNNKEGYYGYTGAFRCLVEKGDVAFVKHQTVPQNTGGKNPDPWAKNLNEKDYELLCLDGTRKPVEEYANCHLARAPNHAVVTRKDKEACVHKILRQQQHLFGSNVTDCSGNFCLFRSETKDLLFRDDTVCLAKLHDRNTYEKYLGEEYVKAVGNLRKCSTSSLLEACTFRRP

Row | Compound | ferritin-GFP fluorescence level in ASI neurons (fpn-1.2KO C. elegans [1]; all administered concentrations) | neuroprotective effect (dopaminergic neurodegeneration score) (fpn-1.2KO C. elegans [2]; all concentrations administered) | ROS level in vivo (FPN1.2KO C. elegans) | ferroxidase-mimicking activity (EPR) ([3]; EPR results) | EPR signal g′ ([3]; Fe(II) plus compound 3:1, 1:1 MeOH:H2O, 77K) | blood-brain barrier penetration (flatiron mice; inferred from brain iron decrease) | brain iron level after acute administration (flatiron mice; singular IP injection) | concentration from which fluorescence levels are robustly reduced (fpn-1.2KO C. elegans [1]; ASI neurons, GFP-tagged ferritin) [µM] | dopamine oxidation (dopamine remaining) [4] | redox potentials of Fe:Hino [5] | concentration showing neuroprotective efficacy (fpn-1.2KO C. elegans [2]; worms treated day 4 to day seven) [µM] | iron handoff to transferrin (human apo-Tf)
1 | Cc1c(O)c(=O)ccn1C [DFP, deferiprone] | failed to reduce the fluorescence level | did not confer neuroprotective effects | – | – | – | – | – | – | – | – | – | –
2 | CC(C)c1cccc(=O)c(O)c1 [hinokitiol] | – | – | restore wild type levels of ROS | promoting Fe(II) oxidation to Fe(III) | 4.3 | capacity to penetrate blood-brain barrier | dose-dependent decrease of brain iron level | ≥ 0.1 | mitigating dopamine oxidation | decreased with increasing hinokitiol concentrations | 0.05 to 0.1 | can handoff iron to transferrin
